These results are taken from ChEMBL document CHEMBL3751844, “Novel juglone and plumbagin 5-O derivatives and their in vitro growth inhibitory activity against apoptosis-resistant cancer cells” (Bioorg Med Chem Lett, 2016).

Active and inactive are the calls of the source. The rule behind the calls is not given here.

Data set [1] is described as follows: Growth inhibition of human Hs683 cells by MTT assay. It is filed as functional, cell-based. Conditions: Hs 683.
For data set [2], the system named is A549. In words: Growth inhibition of human A549 cells by MTT assay. The class given is functional, cell-based.
For data set [3], the system named is MCF7. In words: Growth inhibition of human MCF7 cells by MTT assay. It is filed as functional, cell-based. (Tetrazolium assays rely on reduction of a dye to a coloured formazan, in cell work by metabolically active cells.)
Data set [4] deals with SK-MEL-28. Nature of the data set: Growth inhibition of human SK-MEL-28 cells by MTT assay. The class given is functional, cell-based.
Data set [5] can be described thus: Growth inhibition of mouse B16F10 cells by MTT assay. The class given is functional, cell-based. Conditions: B16-F10.
Data set [6] can be described thus: Growth inhibition of human U373 cells by MTT assay. As to conditions: U373 MG. The class given is functional, cell-based, U-373MG ATCC.
Data set [7] deals with U-373MG ATCC. In words: Cytotoxicity against human U373 cells at 5 uM after 72 hrs by video microscopic analysis. It is filed as functional, cell-based.
Data set [8] is described as follows: Chemical stability of the compound in MEM and RPMI assessed as compound recovery after 72 hrs in presence of foetal calf serum. It is filed as physicochemical. As to conditions: cattle, MEM and RPMI cell culture media with foetal calf serum; read-out: Drug recovery.
The test system of data set [9] is U-373MG ATCC. In words: Cytotoxicity against human U373 cells at 8 uM after 72 hrs by video microscopic analysis. The class given is functional, cell-based.
In data set [10] the test system is U-373MG ATCC. In words: Cytotoxicity against human U373 cells at 17 uM after 72 hrs by video microscopic analysis. It is filed as functional, cell-based.

The term IC50 denotes the concentration at which inhibition is half-maximal. The low end stands for greater potency in that assay, the high end for weaker potency in that assay. Take `CCOc1cccc2c1C(=O)C=CC2=O`: the IC50 was determined as 23 µM in data set [1]; 19 µM in data set [2]; 24 µM in data set [3]; 9 µM in [4]; 5 µM in [5]; 29 µM in data set [6].
As to `CC(C)=CCOc1cccc2c1C(=O)C=C(C)C2=O`, the half-maximal inhibitory concentration (IC50) in data set [1] worked out at 3 µM; in [2] it was 4 µM; in [3] it was 3 µM; in data set [4], 7 µM; in data set [5], 1 µM; in [6], 7 µM.
In the case of `COc1cccc2c1C(=O)C=C(C)C2=O`, the IC50 amounted to 3 µM in data set [1]; 4 µM in data set [2]; 5 µM in data set [3]; 5 µM in data set [4]; 2 µM in [5]; 5 µM in data set [6]. Moreover, in data set [7], the outcome was Active.
Turning to `CCCCCCCCCCCCCCCCCC(=O)Oc1cccc2c1C(=O)C=CC2=O`, the 50% inhibitory concentration (IC50) in data set [1] worked out at 67 µM; in data set [2], 67 µM; in [3], 30 µM; in data set [4] it was 18 µM; in data set [5], 19 µM; in data set [6] it was 65 µM. Moreover, in data set [8], the remaining at 72 h is > 95%.
For `CC(=O)Oc1cccc2c1C(=O)C=CC2=O`, the concentration for half-maximal inhibition (IC50) in [1] was found to be 23 µM; in [2], 23 µM; in data set [3], 8 µM; in [4], 23 µM; in data set [5], 7 µM; in [6] it was 8 µM. Also, the remaining at 72 h in data set [8] is > 95%. Also, in data set [9], the outcome was Active.
For `CCCCCCCCCCCC(=O)Oc1cccc2c1C(=O)C=C(C)C2=O`, the IC50 came to 17 µM in data set [1]; 22 µM in data set [2]; 29 µM in data set [3]; 77 µM in data set [4]; 3 µM in data set [5]; 16 µM in [6]. Also, the remaining at 72 h in [8] is > 95%.
For the molecule `C=CCOc1cccc2c1C(=O)C=CC2=O`, the IC50 in data set [1] came to 19 µM; in data set [2], 26 µM; in data set [3], 21 µM; in [4], 24 µM; in [5], 4 µM; in data set [6], 32 µM.
With `CCCCCCCCCCCCCCCC(=O)Oc1cccc2c1C(=O)C=C(C)C2=O`, the IC50 in [1] amounted to 33 µM; in data set [2] it was 30 µM; in data set [3], 57 µM; in data set [4], 73 µM; in data set [5] it was 22 µM; in [6], 48 µM. In addition, the remaining at 72 h in data set [8] was > 95%.
On to `CCOc1cccc2c1C(=O)C=C(C)C2=O`, for which the IC50 in data set [1] was found to be 2 µM; in data set [2], 3 µM; in data set [3], 6 µM; in data set [4], 3 µM; in [5] it was 3 µM; in [6], 24 µM.
Turning to `CC(C)=CCOc1cccc2c1C(=O)C=CC2=O`, the half-maximal inhibitory concentration (IC50) worked out at 7 µM in [1]; 6 µM in data set [2]; 16 µM in data set [3]; 5 µM in [4]; 7 µM in data set [5]; 15 µM in data set [6].
Take `CCCCCCCCCCCCCC(=O)Oc1cccc2c1C(=O)C=C(C)C2=O`: the concentration for half-maximal inhibition (IC50) in data set [1] is 9 µM; in [2], 12 µM; in [3], 22 µM; in data set [4] it was 18 µM; in [5], 3 µM; in [6] it was 16 µM. Moreover, in data set [8], the remaining at 72 h was > 95%.
Consider `CCCCCCCC/C=C\CCCCCCCC(=O)Oc1cccc2c1C(=O)C=C(C)C2=O`, for which the concentration for half-maximal inhibition (IC50) in [1] was found to be 35 µM; in [2] it was 36 µM; in data set [3], 57 µM; in data set [4] it was 31 µM; in data set [5], 22 µM; in data set [6] it was 62 µM. For the same molecule, in data set [8], the remaining at 72 h was > 95%.
On to `CC1=CC(=O)c2c(O)cccc2C1=O` [PLUMBAGIN], for which the IC50 in data set [1] amounted to 4 µM; in data set [2] it was 3 µM; in data set [3] it was 3 µM; in [4], 5 µM; in [5] it was 1 µM; in data set [6], 5 µM. In data set [7], the outcome was Active.
With `CCCCCCCCCCCCCC(=O)Oc1cccc2c1C(=O)C=CC2=O`, the IC50 in [1] was determined as 36 µM; in data set [2] it was 36 µM; in [3], 30 µM; in data set [4], 33 µM; in data set [5], 27 µM; in data set [6], 30 µM. Further, the remaining at 72 h in [8] was > 95%.
Take `CCCCCCCCCCCCCCCCCC(=O)Oc1cccc2c1C(=O)C=C(C)C2=O`: the 50% inhibitory concentration (IC50) is > 100 µM in data set [1]; > 100 µM in data set [2]; > 100 µM in data set [3]; 91 µM in data set [4]; 46 µM in data set [5]; > 100 µM in data set [6]. Besides, the remaining at 72 h in data set [8] was > 95%.
In the case of `CC(=O)Oc1cccc2c1C(=O)C=C(C)C2=O`, the half-inhibitory concentration (IC50) is 5 µM in data set [1]; 5 µM in data set [2]; 4 µM in data set [3]; 3 µM in data set [4]; 0.4 µM in data set [5]; 5 µM in data set [6]. In addition, in [8], the remaining at 72 h is > 95%.
For `CC(C)=CCC/C(C)=C/COc1cccc2c1C(=O)C=CC2=O`, the concentration for half-maximal inhibition (IC50) is 67 µM in [1]; 67 µM in data set [2]; > 100 µM in data set [3]; > 100 µM in [4]; > 100 µM in data set [5]; > 100 µM in data set [6].
On to `CCCCCCCCCCCCCCCC(=O)Oc1cccc2c1C(=O)C=CC2=O`, for which the IC50 in data set [1] was > 100 µM; in data set [2], > 100 µM; in [3], 86 µM; in data set [4], > 100 µM; in data set [5], 53 µM; in [6] it was > 100 µM. Besides, the remaining at 72 h in data set [8] is > 95%.
In the case of `COc1cccc2c1C(=O)C=CC2=O`, the IC50 was 6 µM in data set [1]; 9 µM in data set [2]; 39 µM in data set [3]; 30 µM in data set [4]; 10 µM in data set [5]; 9 µM in [6].
On to `O=C1C=CC(=O)c2c(O)cccc21` [JUGLONE], for which the half-maximal inhibitory concentration (IC50) in [1] was determined as 7 µM; in data set [2] it was 7 µM; in [3], 13 µM; in [4] it was 7 µM; in data set [5], 6 µM; in data set [6] it was 17 µM. In data set [10], the outcome was Active.
As to `CC(C)=CCC/C(C)=C/COc1cccc2c1C(=O)C=C(C)C2=O`, the 50% inhibitory concentration (IC50) in data set [1] amounted to 22 µM; in data set [2] it was 23 µM; in data set [3], 40 µM; in [4] it was 31 µM; in data set [5] it was 30 µM; in data set [6], 59 µM.
Take `CCCCCCCCCCCC(=O)Oc1cccc2c1C(=O)C=CC2=O`: the IC50 in [1] was determined as 29 µM; in data set [2], 29 µM; in data set [3], 24 µM; in data set [4], 15 µM; in [5], 8 µM; in data set [6], 18 µM. For the same molecule, the remaining at 72 h in data set [8] is > 95%.
In the case of `C=CCOc1cccc2c1C(=O)C=C(C)C2=O`, the IC50 in data set [1] is 3 µM; in data set [2], 3 µM; in data set [3], 3 µM; in data set [4], 3 µM; in data set [5], 1 µM; in [6] it was 3 µM.
As to `CCCCCCCC/C=C\CCCCCCCC(=O)Oc1cccc2c1C(=O)C=CC2=O`, the concentration for half-maximal inhibition (IC50) in data set [1] came out at 77 µM; in data set [2] it was 77 µM; in data set [3], 61 µM; in [4] it was 67 µM; in data set [5], 61 µM; in data set [6] it was 91 µM. In addition, in data set [8], the remaining at 72 h was > 95%.
